# Assays:
# [1] = target: T1, human 5-HT1A receptors (Homo sapiens, UniProt P08908); assay: 8-OH-DPAT binding in CHO cells stably transfected with human 5HT1a receptor; details: displacement of [3H]8-OH-DPAT, CHO cells with human 5-HT1A; read-out: 5-HT1A Receptor Affinity Ki
# T1 construct: expressed in transfected cells; host or cells: CHO cells, stably transfected
# T1 sequence (P08908 1-422): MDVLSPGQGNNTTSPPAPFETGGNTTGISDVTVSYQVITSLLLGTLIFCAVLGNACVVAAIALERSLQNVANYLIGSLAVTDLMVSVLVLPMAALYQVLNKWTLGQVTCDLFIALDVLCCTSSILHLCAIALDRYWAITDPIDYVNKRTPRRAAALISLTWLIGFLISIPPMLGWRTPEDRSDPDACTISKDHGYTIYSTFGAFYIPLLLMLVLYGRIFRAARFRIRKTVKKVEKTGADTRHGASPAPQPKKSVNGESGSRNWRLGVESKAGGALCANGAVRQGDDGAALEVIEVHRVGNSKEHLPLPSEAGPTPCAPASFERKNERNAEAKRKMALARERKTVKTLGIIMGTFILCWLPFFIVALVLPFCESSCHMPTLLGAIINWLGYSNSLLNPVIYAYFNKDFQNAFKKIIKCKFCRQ
# Procedure: High affinity for the serotonin 5-HT1A receptor was established by testing the claimed compound's ability to displace [^3H] 8-OH-DPAT (dipropylaminotetralin) from the 5-HT1A serotonin receptor following a modification of the procedure of Hall et al., (J. Neurochem., 1985, 44: 1685) which utilizes CHO cells stably transfected with human 5-HT1A receptors.
# Stabily transfected CHO cells were grown in DMEM containing 10% heat inactivated FBS and non-essential amino acids. Cells were scraped off the plate, transferred to centrifuge tubes, and washed twice by centrifugation (2000 rpm for 10 min., 4° C.) in buffer (50 mM Tris pH 7.5). The resulting pellets were aliquoted and placed at −80° C. On day of assay, the cells were thawed on ice, and resuspended in buffer. The binding assay was performed in a 96 well microtiter plate in a total volume of […].
# Non-specific binding was determined in the presence of […] 5HT, final ligand concentration is 1.5 nM. Following a 30 minute incubation at room temperature, the reaction was terminated by the addition of ice cold buffer and rapid filtration through a GF/B filter presoaked for 30 minutes in 0.5% PEI. Compounds were initially tested in a single point assay to determine percent inhibition at […]. Subsequently, Ki values were determined for compounds defined to be active.
# [2] = target: h5-HT Transporter (Homo sapiens, UniProt P31645); assay: h5-HT Transporter Function (Table 1); type: biochemical
# Sequence of h5-HT Transporter (P31645 whole entry): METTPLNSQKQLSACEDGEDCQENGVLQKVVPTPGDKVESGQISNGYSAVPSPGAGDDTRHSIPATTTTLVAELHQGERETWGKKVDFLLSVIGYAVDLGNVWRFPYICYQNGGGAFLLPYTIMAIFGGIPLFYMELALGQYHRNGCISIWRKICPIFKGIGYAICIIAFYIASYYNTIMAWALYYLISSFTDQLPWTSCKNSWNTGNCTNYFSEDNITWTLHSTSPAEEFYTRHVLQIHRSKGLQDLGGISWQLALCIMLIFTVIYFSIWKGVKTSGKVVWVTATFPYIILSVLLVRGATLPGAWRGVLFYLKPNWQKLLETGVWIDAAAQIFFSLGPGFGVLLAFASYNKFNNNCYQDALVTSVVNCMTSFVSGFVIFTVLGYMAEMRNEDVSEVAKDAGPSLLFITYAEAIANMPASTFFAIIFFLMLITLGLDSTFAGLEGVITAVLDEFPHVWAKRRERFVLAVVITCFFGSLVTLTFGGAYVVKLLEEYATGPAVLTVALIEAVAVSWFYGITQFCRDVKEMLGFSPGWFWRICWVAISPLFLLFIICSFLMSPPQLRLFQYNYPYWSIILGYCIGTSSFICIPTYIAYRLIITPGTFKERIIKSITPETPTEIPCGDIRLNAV
# [3] = target: T1, human 5-HT1A receptors; assay: 35S-GTPγS binding assay, membranes containing cloned human 5-HT1A receptors; type: biochemical; details: for IC50: read-out: 5-HT1A Function GTPγS IC50
# Description: (§1) The agonist or antagonist activity at 5-HT1A receptors was established by using two different assays. The ^35S-GTPγS binding assay similar to that used by Lazareno and Birdsall (Br. J. Pharmacol., 1993, 109: 1120) was used to determine the test compound's ability to affect the binding of ^35S-GTPγS to membranes containing cloned human 5-HT1A receptors. Agonists produce an increase in binding whereas antagonists produce no increase but rather reverse the effects of the standard agonist 8-OH-DPAT. The test compound's maximum stimulatory effect is represented as the Emax, while its potency is defined by the EC50. The test compound's maximum inhibitory effect is represented as the Imax, while its potency is defined by the IC50. The second assay measured cAMP accumulation upon binding of the ligand to the 5-HT1A receptor. Antagonists block the effect of the standard agonist 8-OH-DPAT resulting in an increase in cAMP accumulation while agonists have the reverse effect. The test compound's maximum stimulatory or inhibitory effect is represented as the Emax while its potency is defined by either IC50 for an antagonist or EC50 for an agonist. [^3H]-8-OH-DPAT was used to determine maximum agonist or antagonist response in both functional assays.
# [4] = target: T2, h5HT1a receptor (Homo sapiens, UniProt P08908); assay: cAMP RIA in CHO cells stably transfected with the h5HT1a receptor; type: cell-based; details: for EC50: agonist, forskolin-stimulated cAMP, read-out: 5-HT1A Function cAMP EC50; for IC50: antagonist, reversal of agonist 8-OH-DPAT, read-out: 5-HT1A Function cAMP IC50
# T2 construct: expressed in transfected cells; host or cells: CHO cells, stably transfected
# T2 sequence (P08908 1-422): T1 sequence (P08908 1-422)
# Description: as §1
# Stabily transfected CHO cells were grown in DMEM containing 10% heat inactivated FBS and non-essential amino acids. The cells were plated at a density of 10(6) cells per well in a 24 well plate and incubated for 2 days in a CO2 incubator. On the second day, the media was replaced with 0.5 ml treatment buffer (DMEM+25 mM HEPES, 5 mM theophylline, 10 uM pargyline) and incubated 10 minutes at 37° C.
# Wells were treated with forskolin (1 μM final conc) followed immediately by test compound (0.1 and 1 uM for initial screen) and incubated for an additional 10 min at 37° C. The reaction was terminated by removal of the media and addition of 0.5 ml ice cold assay buffer (supplied in RIA kit). Plates were stored at −20° C. prior to assessment of cAMP formation by RIA.
# Compounds shown to have no agonist activities were further analyzed for ability to reverse agonist activity. In separate experiments, 6 concentrations of antagonist were preincubated for 20 minutes prior to the addition of agonist and forskolin. Cells were harvested as described. The cAMP kit was supplied by Amersham and the RIA was performed as per kit instructions.
Ki [1],IC50 [2],"EC50 ([3]; agonist potency, read-out: 5-HT1A Function GTPγS EC50)",EC50 [4],IC50 [3],IC50 [4],Compound
113 nM,234 nM,489 nM,230 nM,–,–,"COc1ccc(C(N)=O)c2c1OC[C@H](NCCCc1c[nH]c3ccc(F)cc13)C2 [Example 1, (3R)-3-[3-(5-fluoro-1H-indol-3-yl)propyl]amino-8-methoxychromane-5-carboxamide]"
10.4 nM,13.2 nM,–,–,119 nM,92.1 nM,"COc1ccc(C(N)=O)c2c1OC[C@H](N(CCCc1c[nH]c3ccc(F)cc13)C1CCC1)C2 [Example 2, (3R)-3-{cyclobutyl[3-(5-fluoro-1H-indol-3-yl)propyl]amino}-8-methoxychromane-5-carboxamide]"
108 nM,329 nM,–,–,5030 nM,768 nM,"CCOc1ccc(C(N)=O)c2c1OC[C@H](N(CCCc1c[nH]c3ccc(F)cc13)C1CCC1)C2 [Example 3, (3R)-3-{cyclobutyl[3-(5-fluoro-1H-indol-3-yl)propyl]amino}-8-ethoxychromane-5-carboxamide]"
70.1 nM,450 nM,–,151 nM,684 nM,–,"CCCOc1ccc(C(N)=O)c2c1OC[C@H](N(CCCc1c[nH]c3ccc(F)cc13)C1CCC1)C2 [Example 4, (3R)-3-{cyclobutyl[3-(5-fluoro-1H-indol-3-yl)propyl]amino}-8-propoxychromane-5-carboxamide]"
35.3 nM,214 nM,–,118 nM,3150 nM,–,"CC(C)Oc1ccc(C(N)=O)c2c1OC[C@H](N(CCCc1c[nH]c3ccc(F)cc13)C1CCC1)C2 [Example 5, (3R)-3-{cyclobutyl[3-(5-fluoro-1H-indol-3-yl)propyl]amino}-8-isopropoxychromane-5-carboxamide]"
136 nM,347 nM,–,312 nM,2550 nM,–,"NC(=O)c1ccc(O)c2c1C[C@@H](N(CCCc1c[nH]c3ccc(F)cc13)C1CCC1)CO2 [Example 6, (3R)-3-{cyclobutyl[3-(5-fluoro-1H-indol-3-yl)propyl]amino}-8-hydroxychromane-5-carboxamide]"
636 nM,2680 nM,–,–,–,–,"COc1ccc(C(N)=O)c2c1OC[C@H](N(CCCc1c[nH]c3ccc(F)cc13)CCC(F)(F)F)C2 [Example 7, (3R)-3-{3,3,3-trifluoropropyl[3-(5-fluoro-1H-indol-3-yl)propyl]amino}-8-methoxychromane-5-carboxamide]"
25.5 nM,45.3 nM,–,–,442 nM,439 nM,"COc1ccc(C(N)=O)c2c1OC[C@H](N(CCCc1c[nH]c3ccc(F)cc13)CC1CC1)C2 [Example 8, (3R)-3-{cyclopropylmethyl[3-(5-fluoro-1H-indol-3-yl)propyl]amino}-8-methoxychromane-5-carboxamide]"
20.5 nM,8 nM,–,186 nM,321 nM,–,"CCCN(CCCc1c[nH]c2ccc(F)cc12)[C@H]1COc2c(OC)ccc(C(N)=O)c2C1 [Example 10, (3R)-3-{propyl[3-(5-fluoro-1H-indol-3-yl)propyl]amino}-8-methoxychromane-5-carboxamide]"
98.7 nM,279 nM,–,–,3030 nM,375 nM,"CCCCN(CCCc1c[nH]c2ccc(F)cc12)[C@H]1COc2c(OC)ccc(C(N)=O)c2C1 [Example 11, (3R)-3-{butyl[3-(5-fluoro-1H-indol-3-yl)propyl]amino}-8-methoxychromane-5-carboxamide]"
–,2580 nM,–,–,–,–,"COc1ccc(C(N)=O)c2c1OC[C@H](N(CCCc1c[nH]c3ccc(F)cc13)CCCC(F)(F)F)C2 [Example 12, (3R)-3-{4,4,4-trifluorobutyl[3-(5-fluoro-1H-indol-3-yl)propyl]amino}-8-methoxychromane-5-carboxamide]"
214 nM,339 nM,–,–,2950 nM,–,"COc1ccc(C(N)=O)c2c1OC[C@H](N(CCCc1c[nH]c3ccc(F)cc13)CC(C)C)C2 [Example 13, (3R)-3-{2-methylpropyl[3-(5-fluoro-1H-indol-3-yl)propyl]amino}-8-methoxychromane-5-carboxamide]"
402 nM,2.62 nM,–,–,1370 nM,–,"CCN(CCCc1c[nH]c2ccc(F)cc12)[C@H]1COc2c(OC)ccc(C(N)=O)c2C1 [Example 14, (3R)-3-{ethyl[3-(5-fluoro-1H-indol-3-yl)propyl]amino}-8-methoxychromane-5-carboxamide]"
1700 nM,160 nM,–,–,–,–,"COc1ccc(C(N)=O)c2c1OC[C@H](N(C)CCCc1c[nH]c3ccc(F)cc13)C2 [Example 15, (3R)-3-{methyl[3-(5-fluoro-1H-indol-3-yl)propyl]amino}-8-methoxychromane-5-carboxamide]"
662 nM,5540 nM,–,–,–,–,"CNC(=O)c1ccc(OC)c2c1C[C@@H](N(CCCc1c[nH]c3ccc(F)cc13)CCC(F)(F)F)CO2 [Example 17, (3R)-3-{3,3,3-trifluoropropyl[3-(5-fluoro-1H-indol-3-yl)propyl]amino}-8-methoxychromane-5-methylcarboxamide]"
61.3 nM,110 nM,–,–,–,94.2 nM,"COc1ccc(C(N)=O)c2c1OC[C@H](N(CCCc1c[nH]c3c(F)cc(F)cc13)C1CCC1)C2 [Example 18, (3R)-3-{cyclobutyl[3-(5,7-difluoro-1H-indol-3-yl)propyl]amino}-8-methoxy-chromane-5-carboxamide]"
43.6 nM,407 nM,–,–,–,99.9 nM,"COc1ccc(C(N)=O)c2c1OC[C@H](N(CCCC1CNc3ccc(F)cc31)C1CCC1)C2 (stereo partly drawn) [Example 19, (3R)-3-{cyclobutyl[3-(5-fluoro-1H-indolin-3-yl)propyl]amino}-8-methoxy-chromane-5-carboxamide]"
138 nM,831 nM,–,–,–,137 nM,"CCSc1ccc(C(N)=O)c2c1OC[C@H](N(CCCc1c[nH]c3ccc(F)cc13)C1CCC1)C2 [Example 23, (3R)-3-{cyclobutyl[3-(5-fluoro-1H-indol-3-yl)propyl]amino}-8-(ethylthio)chromane-5-carboxamide]"
72.7 nM,125 nM,–,–,–,–,"CN(C)c1ccc(C(N)=O)c2c1OC[C@H](N(CCCc1c[nH]c3ccc(F)cc13)C1CCC1)C2 [Example 24, (3R)-3-{cyclobutyl[3-(5-fluoro-1H-indol-3-yl)propyl]amino}-8-(dimethylamino) chromane-5-carboxamide]"

Compound,Ki [1],IC50 [2],"EC50 ([3]; agonist potency, read-out: 5-HT1A Function GTPγS EC50)",EC50 [4],IC50 [3],IC50 [4]
(3R)-3-{2-isopropyl[3-(5-fluoro-1H-indol-3-yl)propyl]amino}-8-methoxychromane-5-carboxamide [Example 9],515 nM,–,–,–,–,–

# Source: patent publication US20080221193A1, “3-AMINO CHROMANE DERIVATIVES” (Wyeth, priority 2006, published 2008)
